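Compound exposure: 48 hours, 5 concentrations, 96-well plates. GI50: concentration for 50% inhibition of growth.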 The source made the active and inactive calls. Rule as the data show it: active = GI50 up to about 1.1 µM and inactive = higher.
What was measured:
Assay in all cases: NCI anticancer screen, dose series, 48 h
[1] = test system: A498
[2] = test system: BT-549
[3] = test system: CCRF-CEM
[4] = test system: EKVX
[5] = test system: HOP-62
[6] = test system: IGROV-1
[7] = test system: K562
[8] = test system: LOX IMVI
[9] = test system: MCF7
[10] = test system: MDA-MB-231
[11] = test system: MDA-N
[12] = test system: Malme-3M
[13] = test system: OVCAR-4
[14] = test system: OVCAR-8
[15] = test system: PC-3
[16] = test system: SK-MEL-5
[17] = test system: SK-OV-3
[18] = test system: SNB-75
[19] = test system: SW-620
[20] = test system: TK-10

SMILES | GI50 [1] | GI50 [2] | GI50 [3] | GI50 [4] | GI50 [5] | GI50 [6] | GI50 [7] | GI50 [8] | GI50 [9] | GI50 [10] | GI50 [11] | GI50 [12] | GI50 [13] | GI50 [14] | GI50 [15] | GI50 [16] | GI50 [17] | GI50 [18] | GI50 [19] | GI50 [20]
c1ccc2c3ccn4ccc5c6ccccc6[nH]c5c4c-3nc2c1 | 1.63 µM (inactive) | 1.77 µM (inactive) | 0.31 µM (active) | 1.02 µM (active) | 1.31 µM (inactive) | 1.25 µM (inactive) | 0.201 µM (active) | 0.202 µM (active) | 0.331 µM (active) | 0.329 µM (active) | 1.34 µM (inactive) | 1.65 µM (inactive) | 0.394 µM (active) | 0.246 µM (active) | 1.39 µM (inactive) | 1.46 µM (inactive) | 1.52 µM (inactive) | 1.57 µM (inactive) | 0.169 µM (active) | 2.62 µM (inactive)
Oc1c(Br)c(-c2ccccc2)nc2ccccc12 | 5.35 µM (inactive) | 58.1 µM (inactive) | 44 µM (inactive) | 7.85 µM (inactive) | > 62.1 µM (inactive) | 9.55 µM (inactive) | 1.9 µM (inactive) | 64 µM (inactive) | 59.2 µM (inactive) | 2.87 µM (inactive) | 39.2 µM (inactive) | 53.2 µM (inactive) | 39.6 µM (inactive) | – | 9.38 µM (inactive) | 8.15 µM (inactive) | > 100 µM (inactive) | 8.15 µM (inactive) | 97.5 µM (inactive) | 57.8 µM (inactive)
CC#CC#C/C=C1/O[C@]2(CCC(OC(=O)CC(C)C)CO2)[C@@H]2O[C@H]12 (some centres not stated) | > 100 µM (inactive) | 24.1 µM (inactive) | 7.69 µM (inactive) | 28.9 µM (inactive) | 42.7 µM (inactive) | 91.4 µM (inactive) | 31.3 µM (inactive) | 16.2 µM (inactive) | 33 µM (inactive) | 24 µM (inactive) | 22.5 µM (inactive) | 21.8 µM (inactive) | 29.6 µM (inactive) | 32.4 µM (inactive) | 23.5 µM (inactive) | – | > 100 µM (inactive) | 78.5 µM (inactive) | 19.2 µM (inactive) | 25.7 µM (inactive)
O=S1(=O)N=C(SCc2ccccc2)N(c2ccccc2)c2ccncc21 | 17.1 µM (inactive) | 25.5 µM (inactive) | 28.5 µM (inactive) | 24.4 µM (inactive) | 31.3 µM (inactive) | – | 29.9 µM (inactive) | 53.7 µM (inactive) | 31.2 µM (inactive) | 68.2 µM (inactive) | 27.4 µM (inactive) | 49.5 µM (inactive) | 23.3 µM (inactive) | 47.3 µM (inactive) | 25.7 µM (inactive) | 28.4 µM (inactive) | 38.8 µM (inactive) | 24.7 µM (inactive) | 56 µM (inactive) | 35.7 µM (inactive)
CC(=O)NC1COC(COC(=O)CCCCCCCCCCNC(=O)c2ccc([N+](=O)[O-])c3c(=O)c4ccccc4[nH]c23)C(O)C1OC(C)C(=O)NC(C(=O)NC(CCC(N)=O)C(=O)OCc1ccccc1)C(C)C (configuration not stated) | 28.8 µM (inactive) | 48.8 µM (inactive) | 20.8 µM (inactive) | 8.69 µM (inactive) | 7.45 µM (inactive) | 6.38 µM (inactive) | 9.48 µM (inactive) | 11.5 µM (inactive) | 6.61 µM (inactive) | 38.8 µM (inactive) | 0.966 µM (active) | 38.6 µM (inactive) | 8.26 µM (inactive) | 12.6 µM (inactive) | 8.05 µM (inactive) | 29.6 µM (inactive) | 39.2 µM (inactive) | 14.4 µM (inactive) | 26.6 µM (inactive) | 18.5 µM (inactive)
CC(C)=CCC[C@@H](C)C1=C(O)C(=O)C(C)=C(Nc2ccccc2F)C1=O | 16.6 µM (inactive) | 17.5 µM (inactive) | 2.39 µM (inactive) | 49.2 µM (inactive) | 11.6 µM (inactive) | 32.6 µM (inactive) | 9.62 µM (inactive) | 16.4 µM (inactive) | 24.8 µM (inactive) | 28.4 µM (inactive) | 23.1 µM (inactive) | 10.2 µM (inactive) | 15 µM (inactive) | 7.19 µM (inactive) | 12.3 µM (inactive) | 12.5 µM (inactive) | 25.7 µM (inactive) | 22.1 µM (inactive) | 23.8 µM (inactive) | 29.9 µM (inactive)
Cc1c2ccc3ccccc3c2c[n+]2ccccc12 | > 47.5 µM (inactive) | 2.96 µM (inactive) | 6.59 µM (inactive) | 4.91 µM (inactive) | 7.93 µM (inactive) | 43.5 µM (inactive) | 10.7 µM (inactive) | 42.9 µM (inactive) | 10.4 µM (inactive) | 21.4 µM (inactive) | 6.71 µM (inactive) | 1.56 µM (inactive) | 12 µM (inactive) | 4.5 µM (inactive) | 26.7 µM (inactive) | 6.79 µM (inactive) | 16.9 µM (inactive) | 6.41 µM (inactive) | 4.2 µM (inactive) | 35.7 µM (inactive)

— ChEMBL document CHEMBL1201862, “PubChem BioAssay data set” (2004)
